Test results from PubChem BioAssay (NCI).
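Grown in 96-well plates, cells were treated for 48 hours with each compound at five concentrations. Insufficient inhibition: endpoint recorded as highest concentration tested. Abbreviation: GI50, concentration required for 50% inhibition of growth. At the TGI there is no net growth.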

Columns and labels:
Assay in all cases: inhibition of tumour cell growth, NCI panel, 48 h
[1] = tested on: A498 renal
[2] = tested on: RXF 393 renal
[3] = tested on: RPMI-8226 leukemia
[4] = tested on: NCI-H226 lung
[5] = tested on: LOX IMVI melanoma
[6] = tested on: CCRF-CEM leukemia
[7] = tested on: PC-3 prostate
[8] = tested on: HT29 colon
[9] = tested on: HCT-15 colon
[10] = tested on: MALME-3M melanoma

CCc1nc(N)nc(N)c1-c1ccc2nnn(O)c2c1
TGI [1]: > 100 µM | TGI [2]: > 100 µM | TGI [3]: > 100 µM | TGI [4]: > 100 µM | TGI [5]: > 100 µM | TGI [6]: > 100 µM | TGI [7]: > 100 µM | TGI [8]: > 100 µM | TGI [9]: > 100 µM

CC1(Br)CC2OC3(Br)C=CC(C)(O)C2(CC1=O)C3(C)C (stereo unspecified)
TGI [1]: > 100 µM | TGI [3]: > 100 µM | TGI [4]: > 100 µM | TGI [5]: > 100 µM | TGI [6]: > 36 µM | TGI [10]: > 100 µM | TGI [8]: > 100 µM | TGI [9]: > 100 µM

Nc1nc(N)c(-c2ccccc2)c(C(=O)Nc2ccccc2)n1
TGI [1]: > 100 µM | TGI [2]: > 100 µM | TGI [3]: > 100 µM | TGI [4]: > 100 µM | TGI [5]: > 100 µM | TGI [6]: > 100 µM | TGI [10]: > 100 µM | TGI [8]: > 100 µM | TGI [9]: > 100 µM

CONC(C)=O
TGI [1]: > 100 µM | TGI [3]: > 100 µM | TGI [4]: > 100 µM | TGI [5]: > 100 µM | TGI [6]: > 100 µM | TGI [7]: > 100 µM | TGI [10]: > 100 µM | TGI [8]: > 100 µM | TGI [9]: > 100 µM

N#CCCCCCOCCOCCOCCOCCOCCCCCC#N
TGI [1]: > 100 µM | TGI [2]: > 100 µM | TGI [4]: > 100 µM | TGI [5]: > 100 µM | TGI [6]: > 100 µM | TGI [10]: > 100 µM | TGI [8]: > 100 µM | TGI [9]: > 100 µM

CCC(O)C1Cc2c(C)cc3c(c2O1)C(=O)c1ccccc1C3=O (stereo unspecified)
TGI [1]: 70.3 µM | TGI [3]: 68 µM | TGI [4]: > 100 µM | TGI [5]: 93.7 µM | TGI [6]: > 100 µM | TGI [10]: 88.6 µM | TGI [8]: > 100 µM | TGI [9]: > 100 µM

NC1CCCCC1N.O=[Se]([O-])[O-].[Pt+4] (stereo unspecified)
GI50 [1]: 1.76 µM | TGI [1]: 24.8 µM | GI50 [2]: 7.33 µM | TGI [2]: 57.1 µM | GI50 [3]: < 0.0336 µM | TGI [3]: > 37.1 µM | GI50 [4]: 6.42 µM | TGI [4]: 29.3 µM | GI50 [5]: 0.677 µM | TGI [5]: > 100 µM | GI50 [6]: 0.203 µM | TGI [6]: 97.7 µM | GI50 [10]: 0.986 µM | TGI [10]: 5.26 µM | GI50 [8]: 0.169 µM | TGI [8]: 17.5 µM | GI50 [9]: 0.747 µM | TGI [9]: > 45.5 µM

CCOC(=O)C(N=C(c1ccccc1)c1ccccc1)N(C(=O)OC(C)(C)C)C(=O)OC(C)(C)C (stereo unspecified)
TGI [2]: > 100 µM | TGI [3]: > 100 µM | TGI [4]: > 100 µM | TGI [10]: > 100 µM | TGI [8]: > 100 µM | TGI [9]: > 100 µM

COc1ccc2cc(C(=O)/C=C/c3ccc(N(C)C)cc3)ccc2c1
GI50 [2]: 41.4 µM | TGI [2]: > 100 µM | GI50 [3]: > 100 µM | TGI [3]: > 100 µM | GI50 [5]: 48.1 µM | TGI [5]: > 100 µM | GI50 [7]: > 100 µM | TGI [7]: > 100 µM | GI50 [10]: > 100 µM | TGI [10]: > 100 µM | GI50 [8]: > 100 µM | TGI [8]: > 100 µM | GI50 [9]: 57.3 µM | TGI [9]: > 100 µM

CCNC(=O)Nc1ccc(Oc2ccnc3ccc4c(ccn4C)c23)cc1
GI50 [2]: 17.9 µM | TGI [2]: > 100 µM | GI50 [3]: > 100 µM | TGI [3]: > 100 µM | GI50 [4]: 28.2 µM | TGI [4]: 72.8 µM | GI50 [5]: 20.4 µM | TGI [5]: 40.7 µM | GI50 [6]: 18.9 µM | TGI [6]: > 100 µM | GI50 [7]: > 100 µM | TGI [7]: > 100 µM | GI50 [10]: 38.3 µM | TGI [10]: > 100 µM | GI50 [8]: 44.6 µM | TGI [8]: > 100 µM | GI50 [9]: 37.9 µM | TGI [9]: > 100 µM

CCOC(=O)Cc1csc(Nc2ccc(OCC)cc2)n1
TGI [1]: > 100 µM | TGI [2]: > 100 µM | TGI [3]: > 100 µM | TGI [4]: > 100 µM | TGI [10]: > 100 µM | TGI [8]: > 100 µM | TGI [9]: > 100 µM

CCCCCCn1c(-c2ccc(C(=O)O/N=C(\N)c3ccc4ccccc4c3)cc2)nc(-c2ccccc2)c1-c1ccccc1
GI50 [1]: 2.09 µM | TGI [1]: > 26 µM | GI50 [2]: 5.28 µM | TGI [2]: 29.7 µM | GI50 [4]: 27.3 µM | TGI [4]: > 100 µM | GI50 [6]: 1.51 µM | TGI [6]: > 100 µM | GI50 [7]: 7.32 µM | TGI [7]: > 100 µM | GI50 [10]: > 49.9 µM | TGI [10]: > 100 µM | GI50 [8]: > 100 µM | TGI [8]: > 100 µM | GI50 [9]: 7.53 µM | TGI [9]: > 100 µM

O=C(OC1CCC2OOC1O2)c1ccc([N+](=O)[O-])cc1 (stereo unspecified)
TGI [1]: > 100 µM | TGI [2]: > 100 µM | TGI [3]: > 100 µM | TGI [4]: > 100 µM | TGI [5]: > 100 µM | TGI [6]: > 100 µM | TGI [10]: > 100 µM | TGI [8]: > 100 µM | TGI [9]: > 100 µM

COc1ccc(Sc2nc3cc(N)cc(N)c3nc2-c2ccccc2)cc1
GI50 [1]: > 100 µM | TGI [1]: > 100 µM | GI50 [2]: > 100 µM | TGI [2]: > 100 µM | GI50 [3]: 3.96 µM | TGI [3]: 84.4 µM | GI50 [5]: 51 µM | TGI [5]: > 100 µM | GI50 [6]: 2.28 µM | TGI [6]: 8.36 µM | GI50 [7]: 6.39 µM | TGI [7]: > 100 µM | GI50 [10]: 33.2 µM | TGI [10]: 95 µM

CCOC(=O)NC/C=C/COC1CCCCO1 (stereo unspecified)
TGI [1]: > 100 µM | TGI [2]: > 100 µM | TGI [3]: > 100 µM | TGI [4]: > 100 µM | TGI [6]: > 100 µM | TGI [10]: > 100 µM | TGI [9]: > 100 µM

Cc1cc(C)n(-c2ccnc3cc(Cl)ccc23)n1
TGI [1]: > 100 µM | TGI [2]: > 100 µM | TGI [3]: > 100 µM | TGI [4]: > 100 µM | TGI [5]: > 100 µM | TGI [6]: > 100 µM | TGI [10]: > 100 µM | TGI [8]: > 100 µM | TGI [9]: > 100 µM

COc1cc2c(cc1OC)CC(=O)Nc1cc(OC)c(OC)cc1CC2
TGI [1]: > 100 µM | TGI [3]: > 20 µM | TGI [4]: > 100 µM | TGI [5]: > 100 µM | TGI [6]: > 100 µM | TGI [10]: 99 µM | TGI [8]: > 100 µM | TGI [9]: > 100 µM

CCCCNC(=O)C1C(=O)N(CCCC)C(=O)/C1=N\N (stereo unspecified)
TGI [1]: > 100 µM | TGI [2]: > 100 µM | TGI [3]: > 100 µM | TGI [4]: > 100 µM | TGI [5]: > 100 µM | TGI [10]: > 100 µM | TGI [8]: > 100 µM | TGI [9]: > 100 µM

CC(N)(/C=C/c1ccccc1)C(=O)O (stereo unspecified)
TGI [1]: > 100 µM | TGI [3]: > 100 µM | TGI [4]: > 100 µM | TGI [5]: > 100 µM | TGI [7]: > 100 µM | TGI [10]: > 100 µM | TGI [8]: > 100 µM | TGI [9]: > 100 µM

O=c1[nH]c(=O)c2cc3cc(C4CC(O)C(CO)O4)ccc3cc2[nH]1 (stereo unspecified)
GI50 [1]: > 100 µM | TGI [1]: > 100 µM | GI50 [2]: > 100 µM | TGI [2]: > 100 µM | GI50 [3]: > 100 µM | TGI [3]: > 100 µM | GI50 [4]: > 100 µM | TGI [4]: > 100 µM | GI50 [5]: > 100 µM | TGI [5]: > 100 µM | GI50 [6]: > 100 µM | TGI [6]: > 100 µM | GI50 [7]: > 100 µM | TGI [7]: > 100 µM | GI50 [8]: > 100 µM | TGI [8]: > 100 µM | GI50 [9]: > 100 µM | TGI [9]: > 100 µM
